PubChem BioAssay (NCI)
Several values for one entry are separate records, joined by “and”; a condition that tells them apart may be missing. Equal values may be shown once.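 Following 48 hours of exposure in 96-well plates, responses at five concentrations were used to interpolate endpoints linearly. Here, GI50 denotes the concentration required for 50% inhibition of growth. TGI: concentration producing complete growth inhibition.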

Experiments:
Assay in all cases: inhibition of tumour cell growth, NCI panel, 48 h
[1] = test system: A549 NSCLC
[2] = test system: K-562 leukemia
[3] = test system: ACHN renal
[4] = test system: NCI-H460 lung
[5] = test system: MDA-MB-435
[6] = test system: HOP-92 NSCLC
[7] = test system: U251 CNS
[8] = test system: HCC-2998 colon
[9] = test system: HL-60(TB) leukemia
[10] = test system: SK-MEL-2 melanoma

SMILES	TGI [1]	TGI [2]	TGI [3]	TGI [4]	TGI [5]	TGI [6]	TGI [7]	TGI [8]	TGI [9]	TGI [10]	GI50 [1]	GI50 [2]	GI50 [3]	GI50 [4]	GI50 [5]	GI50 [7]	GI50 [8]	GI50 [9]	GI50 [10]	GI50 [6]
COC1=CC(=O)c2c(O)c3c(c(O)c2C1=O)OC1(Oc2c(cc4cc(C)oc(=O)c4c2O)CC1O)C3O (stereo not given)	> 100 µM	> 100 µM	> 100 µM	67.8 µM	> 100 µM	> 100 µM	> 100 µM	63.8 µM	> 100 µM	> 100 µM	–	–	–	–	–	–	–	–	–	–
CCCCCCCCCCCCCCCCSS(C)(=O)=O	> 80.3 µM	27.9 µM	32.3 µM	> 75.2 µM	> 100 µM	37.9 µM	> 100 µM	> 72.5 µM	11.6 µM	> 42.4 µM	–	–	–	–	–	–	–	–	–	–
COc1cc(/C=C/C(=O)c2ccc(F)cc2)ccc1OCCCCOc1cc2c(cc1OC)C(=O)N1CCCC1C=N2 (stereo not given)	> 21.9 µM	4.05 µM	> 20.5 µM	6.67 µM	8.01 µM	0.673 µM	7.85 µM	9.61 µM	1.21 µM	12.8 µM	2.46 µM	0.62 µM	1.07 µM	0.83 µM	2.71 µM	0.704 µM	0.674 µM	0.477 µM	1.33 µM	–
OCCNC(=S)Nc1ccc(-c2nc(N3C[C@H]4CC[C@@H](C3)O4)c3cccn3n2)cc1	2.75 µM	> 37.6 µM	1.86 µM	19.4 µM	2.86 µM	0.161 µM	11.6 µM	18.6 µM	> 32.5 µM	0.579 µM	0.0856 µM	0.266 µM	0.0502 µM	0.0312 µM	0.0597 µM	0.114 µM	0.0779 µM	1.22 µM	0.0637 µM	< 0.0133 µM
O=C(CC(O)c1cccnc1)CC(O)c1cccnc1 (stereo not given)	47.7 µM	> 51.5 µM	35.3 µM	35.9 µM	55.3 µM	34.5 µM	33 µM	28.6 µM	> 100 µM	37 µM	–	–	–	–	–	–	–	–	–	–
Nc1nc2ccccc2c2[nH]c3ccccc3c12	2.37 µM	–	1.79 µM	–	3.16 µM	–	2.43 µM	–	5.73 µM	2.88 µM	1.09 µM	–	0.485 µM	–	0.938 µM	1.2 µM	–	1.98 µM	1.54 µM	–
C[C@]12CC/C(=N\O)C[C@@H]1CC[C@@H]1[C@@H]2CC[C@]2(C)/C(=N/O)CC[C@@H]12	> 100 µM	> 100 µM	> 100 µM	> 100 µM	70.8 µM	> 100 µM	> 100 µM	–	> 100 µM	97 µM	52.7 µM	40.9 µM	50.1 µM	34.2 µM	24.8 µM	35.2 µM	–	23.2 µM	32.9 µM	> 100 µM
CC(C)(C)n1nc(C2CC2)cc1NC(=O)Nc1ccc(Cl)cc1	> 100 µM	> 100 µM	> 100 µM	> 100 µM	> 100 µM	> 100 µM	> 100 µM	> 100 µM	> 100 µM	> 100 µM	–	–	–	–	–	–	–	–	–	–
O=C1/C(=N/N=C(c2ccccc2)c2ccccc2)c2ccccc2-c2ccccc21	> 100 µM	> 100 µM	> 100 µM	> 100 µM	> 100 µM	87.8 µM	> 100 µM	–	> 100 µM	> 100 µM	–	–	–	–	–	–	–	–	–	–
Cc1ccccc1NC(=O)N/C(N)=N/c1nc(C)c(C)s1	> 100 µM	> 100 µM	> 57 µM	> 100 µM	0.468 µM	> 100 µM	> 46.6 µM	> 100 µM	> 100 µM	> 100 µM	0.545 µM	0.0429 µM	0.7 µM	0.376 µM	0.0332 µM	0.305 µM	0.712 µM	0.235 µM	0.61 µM	30 µM
O=C1c2cccc3c([N+](=O)[O-])ccc(c23)C(=O)N1CCCCl	> 10 µM	> 10 µM	> 10 µM	> 10 µM	> 10 µM	> 10 µM	> 10 µM	> 10 µM	> 10 µM	> 10 µM	> 10 µM	3.04 µM	> 10 µM	5.55 µM	> 10 µM	> 10 µM	5.85 µM	5.18 µM	> 10 µM	> 10 µM
Cc1c(C)n(CC(O)CNC2CCCCC2C)c2ccccc12 (stereo not given)	32.8 µM	20.1 µM	26 µM	31 µM	25.4 µM	17.8 µM	26.7 µM	10.5 µM	42.7 µM	–	16.9 µM	3.93 µM	13.3 µM	15.7 µM	12.8 µM	13.8 µM	3.03 µM	19.2 µM	–	4.76 µM
C=CC1CC12C(=O)C1OC2(C)C2C(=O)c3c(O)cccc3C(=O)C12 (stereo not given)	> 100 µM	90.7 µM	46.6 µM	> 100 µM	45.1 µM	> 100 µM	77.7 µM	> 100 µM	46.9 µM	> 100 µM	70 µM	29.6 µM	20.1 µM	33.8 µM	21 µM	28.7 µM	31.1 µM	18.7 µM	50 µM	25.8 µM
COc1ccc(-c2cnc(SCC(=O)c3c(C)n(C)n(-c4ccccc4)c3=O)n2-c2ccc(OC)cc2)cc1	> 50 µM	> 50 µM	> 50 µM	> 50 µM	> 50 µM	> 50 µM	> 50 µM	> 50 µM	> 50 µM	> 50 µM	> 50 µM	33.2 µM	> 50 µM	43.6 µM	> 50 µM	> 50 µM	44.9 µM	36.8 µM	> 50 µM	> 50 µM
CC(C)C[C@H](NC(=O)[C@H](Cc1ccccc1)NC(=O)c1cnccn1)B(O)O	5.02 µM and 0.615 µM	> 100 µM	–	0.121 µM and 0.0397 µM and 0.15 µM	< 0.01 µM and 0.00186 µM	0.0196 µM and 0.00723 µM	–	–	–	< 0.0223 µM and 0.0101 µM	< 0.0112 µM and 0.00362 µM	0.00398 µM	0.00181 µM	0.0183 µM and 0.00468 µM	0.000748 µM	0.00256 µM	0.000597 µM	0.00296 µM	0.00172 µM	0.0015 µM
O=C(/C=C/c1ccccc1)Nc1ncc(Cc2ccccc2)s1	> 55.1 µM	> 37.1 µM	31.4 µM	5.01 µM	0.1 µM	> 84.8 µM	6.25 µM	3.42 µM	0.609 µM	> 69.1 µM	0.322 µM	0.0624 µM	0.4 µM	0.289 µM	0.0286 µM	0.271 µM	0.303 µM	0.212 µM	0.479 µM	4.72 µM
CS(=O)(=O)OCCCCOS(C)(=O)=O	243 µM and > 1000 µM	223 µM and > 1000 µM	250 µM and > 1000 µM	242 µM and > 1000 µM	> 1000 µM	250 µM and > 948 µM	238 µM and > 1000 µM	201 µM and > 1000 µM	224 µM and 858 µM	250 µM and > 1000 µM	538 µM	795 µM	354 µM	223 µM	> 250 µM	469 µM	> 1000 µM	212 µM	> 1000 µM	570 µM
CN(C)c1ccc(/C=N/NC(=O)CSc2nc3sc4c(c3c(=O)n2-c2ccccc2)CCCCC4)cc1	> 100 µM	–	> 100 µM	4.86 µM	> 100 µM	29 µM	17.1 µM	> 100 µM	> 100 µM	59.3 µM	4.25 µM	–	5.59 µM	2.21 µM	5.07 µM	3.2 µM	7.5 µM	> 100 µM	15.5 µM	3.55 µM
Cc1ccc(C(=O)Nc2ccc(CN3CCN(C)CC3)c(C(F)(F)F)c2)cc1C#Cc1cnc(N)c2ccc(C#N)cc12	12.8 µM	–	6.23 µM	16.6 µM	1.65 µM	0.714 µM	9.23 µM	> 50 µM	> 50 µM	9.51 µM	0.917 µM	–	0.0182 µM	0.557 µM	0.0259 µM	0.393 µM	9.41 µM	0.338 µM	0.0327 µM	0.0134 µM
COc1ccc(C(=O)OC2C(OC3C(O)COC(O[C@H]4C[C@H]5[C@@H]6CC=C7C[C@@H](O)CC[C@]7(C)[C@H]6CC[C@]5(C)[C@H]4[C@H](C)C(=O)CCC(C)C)C3OC(=O)C(C)C)OCC(O)C2O)cc1 (stereo not given in full)	4.58 µM	0.516 µM	4.82 µM	0.538 µM	0.216 µM	3.1 µM	4.16 µM	5.79 µM	–	0.213 µM	0.0224 µM	0.0127 µM	0.111 µM	0.0108 µM	0.0154 µM	0.00381 µM	1.88 µM	–	0.0102 µM	0.0208 µM
CCCCCCCCCCCCCCCCCc1cc(Cl)nc(Cl)n1	> 100 µM	> 100 µM	> 100 µM	> 100 µM	> 100 µM	–	> 100 µM	> 100 µM	> 100 µM	> 100 µM	–	–	–	–	–	–	–	–	–	–
